The values that follow come from US11053170B2, “Liquid urease inhibitor formulations” (YARA INTERNATIONAL ASA, priority 2016, dated 2021).

The test system of data set [1] is rat. To be noted: cited from earlier work.
Data set [2] concerns urease. To be noted: on urea; Rheinland soil (pH 6.5) and Palencia soil (pH 7.5); 25° C., 14 days.
Procedure: Erlenmeyer flasks were filled with 300 g air-dried, arable topsoil, irrigated to a desired % of its WHC (Water Holding Capacity), incubated for 6 days prior to the application of the fertilizers. Fertilizers (2.5-3.15 mm granule size) at a concentration of 100 mg N (Nitrogen)/flask were applied over the soil surface. Boric acid traps were installed to catch volatile ammonia from the air above the topsoil, and the Erlenmeyer flasks were installed in a Phytotron chamber at 25° C. at windy but not dry conditions.
Data set [3] can be described thus: Stability of nBTPT on urea granules (coated). It is filed as physicochemical. To be noted: 500 ppm, bagged, room temperature. The protocol:
In a next step, the nBTPT material was slowly added. A residence time of 10 minutes was applied and the rotating speed of the drum was consequently the same in each experiment. Larger scale experiments with amounts up to 40 kg of fertilizer material were performed in a concrete mixer.
The samples were stored under several conditions, dependent on the type of samples: • Bagged at room temperature (20° C.) or in a Nissen hut (an unconditioned bulk storage hall) • Open to air in a Nissen hut
Typically, a day/night cycle is generated in the Nissen hut, with temperature fluctuations between 0 to 42° C. and fluctuations of relative humidity between 20 and 90%, which can be compared with real life storage in silos.

`CN1CCCC1` [NMP, N-methylpyrrolidine]: the “toxicity oral rat LD50” value in data set [1] was 3914 mg/kg.

As to `CCCCNP(N)(N)=S` [nBTPT, N-(n-butyl) thiophosphoric triamide], the “urease inhibitory activity and volatilization control (cumulated volatile ammonia losses)” value in data set [2] is listed as “no statistically significant difference”. Moreover, in data set [3], the “nBTPT degradation in 155 days” value is given as “about 75%”.
